Experimental data published in US8258081B2, “Use of C3 to C14 aliphatic aldehydes, ketones and primary and secondary C3 to C7 aliphatic alcohols to inhibit sprouting of potato tubers” (Washington State University Research Foundation, priority 2007, dated 2012).

Columns and labels:
[1] = system: potato tubers; assay: Sprout inhibition by C5 to C7 alcohols, sprout fresh weight 21 days after treatment at 18° C.; format: in vivo; conditions: 24 h treatment
Protocol: (§1) The objective of this study was to determine the metabolites of 3-nonen-2-one (3N2) and trans-2-nonenal (T2N), which are two examples of α,β-unsaturated aldehydes and ketones that inhibit sprouting in potatoes as described in U.S. Pat. No. 6,855,669. Potato tubers were treated with 3N2 or T2N (0.75 mmol/kg tuber) for 24 h in a closed chamber. The chemicals were volatilized from filter paper inside the chamber. The tubers were removed from the treatment chamber and placed at 9° C. for up to 28 days.
The objective of this study was to determine the extent to which 1-heptanol, 1-hexanol, 2-heptanol, trans-2-hepten-1-ol, trans-2-hexen-1-ol and 1-pentanol (C5 to C7 alcohols) inhibit sprouting of potato tubers. Tubers were treated separately with 0.25, 0.5, 0.75 or 1 mmol/kg of each alcohol for 24 h as described in Example 1. The treated tubers were placed at 18° C. and sprout fresh weights were measured 21 days after treatment. […] C7 alcohols inhibited sprouting by about 50 to about 100%, depending on the precise treatment.

[2] = system: potato tubers; assay: Sprout inhibition by T2N and its metabolites, sprout fresh weight 21 days after treatment at 19° C.; format: in vivo; conditions: for % Inhibition of sprouting: 24 h treatment
Protocol: as §1
The objective of this study was to determine the extent to which nonanal, 1-nonanol, and trans-2-nonene-1-ol (metabolites of T2N) inhibit sprouting of potato tubers relative to T2N. Tubers were treated separately with 0.25, 0.5 and 0.75 mmol/kg of T2N, nonanal, 1-nonanol, and trans-2-nonene-1-ol for 24 h as described in Example 1. The treated tubers were placed at 19° C. and sprout fresh weights were measured 21 days after treatment. T2N inhibited sprouting (100%) at all concentrations. Nonanal and 1-nonanol inhibited sprouting by 13 to 51%, depending on the compound and the concentration that was used.

[3] = system: Premier Russet tubers; assay: Long term sprout inhibition during storage at 9° C.; format: in vivo, potato; conditions: 0.75 mmol/kg; for duration of sprout suppression: re-applied between second and third month
Protocol: FIG. 4. Effect of trans-2-hexen-1-ol, 2-heptanol, decanal and 3-decanone on sprouting in Premier Russet tubers during long term storage at 9° C.
The objective of this study was to determine the extent to which trans-2-hexen-1-ol, 2-heptanol, decanal, and 3-decanone inhibit sprouting during extended storage under typical commercial storage conditions. Premier Russet tubers were treated separately with 0.75 mmol/kg of each compound in 190 L plastic barrels at room temperature. Chemicals were volatilized from filter paper within the barrels which were sealed for 24 hours during application. Tubers were then stored at 9° C. and sampled monthly to determine the amount of sprouting on a per tuber basis. All treatments were re-applied between the second and third month of storage. […] 2-heptanol and decanal suppressed sprouting for 114 days (about 4 months of control). 3-decanone suppressed sprouting for 83 days.

[4] = system: potato tubers; assay: Residues and metabolites of 3N2 and T2N in treated potato tubers; conditions: for persistence of metabolite residue: tubers treated with 0.75 mmol/kg parent compound, 9° C., 28 days; for metabolites formed in tubers: tubers treated with 0.75 mmol/kg for 24 h, stored at 9° C. up to 28 days
Protocol: FIG. 1. Levels of 3-nonen-2-one, 2-nonanone, and 2-nonanol in tubers initially treated with 0.75 mmol/kg 3-nonen-2-one and stored at 9° C. Content of residues in the outer 20 mm of tuber.
FIG. 2. Levels of trans-2-nonenal, nonanal, trans-2-nonen-1-ol and 1-nonanol in tubers initially treated with 0.75 mmol/kg trans-2-nonenal and stored at 9° C. Content of residues in the outer 20 mm of tuber.
as §1
Samples were taken for analysis of residues and metabolite identification over the 28-day storage period.

[5] = system: potato tubers; assay: Sprout inhibition by 3N2, 2-nonanone and 2-nonanol, sprout fresh weight 21 days after treatment at 18° C.; format: in vivo; conditions: for % Inhibition of sprouting: 24 h treatment; for inhibition of sprout growth relative to non-treated controls: 0.5 and 0.75 mmol/kg
Protocol: as §1
Tubers were treated separately as described in Example 1 with 0, 0.25, 0.5, and 0.75 mmol/kg of 3N2,2-nonanone, and 2-nonanol. The treated tubers were placed at 18° C. and sprout fresh weights were measured 21 days after treatment.

[6] = system: Russet Burbank tubers; assay: Sprout inhibition by mixtures of 3N2 and 2-nonanone, sprout fresh weight 21 days after treatment at 22° C.; format: in vivo, potato
Protocol: FIG. 3. Effects of 3-nonen-2-one (3N2) in various combinations with 2-nonanone on sprouting of Russet Burbank tubers. The compounds were applied as described in Example 1. Tubers were treated for 24 h, removed from treatment chambers, and placed at 22° C. to sprout for 3 weeks. Sprout fresh weight is expressed as a percentage of control (non-treated), which were 100% sprouted.
as §1
The objective of this study was to determine the efficacy of mixtures of 3N2 and its metabolite, 2-nonanone, on sprout inhibition. Tubers were treated as described in Example 1 with 0 to 0.75 mmol/kg of 3N2 combined factorially with 0 to 0.75 mmol/kg of 2-nonanone. The treated tubers were placed at 22° C. and sprout fresh weights were measured 21 days after treatment. […]

[7] = system: potatoes; conditions: with two applications, table-stock and processing potatoes; cited from earlier work

For CCCCCCCO [1-heptanol], the “% Inhibition of sprouting” value ([1]; 0.25 mmol/kg tubers) was 51.8%, the “% Inhibition of sprouting” value ([1]; 0.50 mmol/kg tubers) was 94.0% and the “% Inhibition of sprouting” value ([1]; 0.75 mmol/kg tubers) was 95.7%.
For CCCCCCO [1-hexanol], the “% Inhibition of sprouting” value ([1]; 0.25 mmol/kg tubers) was 36.6%, the “% Inhibition of sprouting” value ([1]; 0.50 mmol/kg tubers) was 61.3% and the “% Inhibition of sprouting” value ([1]; 0.75 mmol/kg tubers) was 71.9%.
For CCCCCCCCCO [1-nonanol], the “% Inhibition of sprouting” value ([2]; 0.25 mmol/kg tubers) was 28.3%, the “% Inhibition of sprouting” value ([2]; 0.5 mmol/kg tubers) was 24.5% and the “% Inhibition of sprouting” value ([2]; 0.75 mmol/kg tubers) was 50.9%.
In the case of CCCCCO [1-pentanol], the “% Inhibition of sprouting” value ([1]; 0.25 mmol/kg tubers) is reported as 7.5%, the “% Inhibition of sprouting” value ([1]; 0.50 mmol/kg tubers) is reported as 32.5% and the “% Inhibition of sprouting” value ([1]; 0.75 mmol/kg tubers) is reported as 45.8%.
In the case of CCCCCC(C)O (stereo not drawn) [2-heptanol], the “% Inhibition of sprouting” value ([1]; 0.25 mmol/kg tubers) is reported as 49.4%, the “% Inhibition of sprouting” value ([1]; 0.50 mmol/kg tubers) is reported as 89.0% and the “% Inhibition of sprouting” value ([1]; 0.75 mmol/kg tubers) is reported as 97.7%. For the same compound, the “duration of sprout suppression” value [3] was 114 days.
With CCCCCCCC(C)O (stereo not drawn) [2-nonanol] the “persistence of metabolite residue” value [4] was “most persistent”, the “% Inhibition of sprouting” value ([5]; 0.25 mmol/kg tubers) was 65.1% and the “% Inhibition of sprouting” value ([5]; 0.5 mmol/kg tubers) was 79.8%. For the same compound, the “% Inhibition of sprouting” value ([5]; 0.75 mmol/kg tubers) was 72.9%.
For CCCCCCCC(C)=O [2-nonanone], the “% Inhibition of sprouting” value ([5]; 0.25 mmol/kg tubers) was 77.22%, the “% Inhibition of sprouting” value ([5]; 0.5 mmol/kg tubers) was 97.9% and the “% Inhibition of sprouting” value ([5]; 0.75 mmol/kg tubers) was 98.8%. For the same compound, the “inhibition of sprout growth relative to non-treated controls” value [5] was “substantially inhibited sprout growth” and the “Sprout growth (fresh weight) as % of non-treated tubers” value ([6]; average of 0.5 and 0.75 mmol/kg 2-nonanone) was 58%.
In the case of CCCCCCCC(=O)CC [3-decanone], the “duration of sprout suppression” value [3] is reported as 83 days.
For CCCCCC=CC(C)=O [3-nonen-2-one, reference compound], the “metabolites formed in tubers” value [4] was 2-nonanone and 2-nonanol, the “% Inhibition of sprouting” value ([5]; 0.25 mmol/kg tubers) was 99.6% and the “% Inhibition of sprouting” value ([5]; 0.5 mmol/kg tubers) was 99.9%. For the same compound, the “% Inhibition of sprouting” value ([5]; 0.75 mmol/kg tubers) was 99.9%, the “inhibition of sprout growth relative to non-treated controls” value [5] was “substantially inhibited sprout growth” and the “Sprout growth (fresh weight) as % of non-treated tubers” value ([6]; 0.75 mmol/kg 3N2 applied alone) was 9%.
For CC(C)OC(=O)Nc1cccc(Cl)c1 [CIPC, chlorpropham], the “duration of sprout inhibition / extended storage life” value [7] is listed as “up to 1 year”.
In the case of CCCCCCCCCC=O [decanal], the “duration of sprout suppression” value [3] is reported as 114 days.
With CCCCCCCCC=O [nonanal] the “% Inhibition of sprouting” value ([2]; 0.25 mmol/kg tubers) was 13.2%, the “% Inhibition of sprouting” value ([2]; 0.5 mmol/kg tubers) was 32.1% and the “% Inhibition of sprouting” value ([2]; 0.75 mmol/kg tubers) was 17.0%.
With CCCC/C=C/CO [trans-2-hepten-1-ol] the “% Inhibition of sprouting” value ([1]; 0.25 mmol/kg tubers) was 91.7%, the “% Inhibition of sprouting” value ([1]; 0.50 mmol/kg tubers) was 98.7% and the “% Inhibition of sprouting” value ([1]; 0.75 mmol/kg tubers) was 99.4%.
In the case of CCC/C=C/CO [trans-2-hexen-1-ol], the “% Inhibition of sprouting” value ([1]; 0.25 mmol/kg tubers) is reported as 96%, the “% Inhibition of sprouting” value ([1]; 0.50 mmol/kg tubers) is reported as 100.0% and the “% Inhibition of sprouting” value ([1]; 0.75 mmol/kg tubers) is reported as 100.0%. The “damage to the tuber periderm” value ([3]; after 83 days) was “excessive damage to the periderm” and the “sprout control” value ([3]; up to 83 days) was “sprouts were effectively controlled up to this point”.
For CCCCCC/C=C/CO [trans-2-nonen-1-ol], the “persistence of metabolite residue” value [4] was “most persistent metabolite”, the “% Inhibition of sprouting” value ([2]; 0.25 mmol/kg tubers) was 8.9% and the “% Inhibition of sprouting” value ([2]; 0.5 mmol/kg tubers) was 62.8%. For the same compound, the “% Inhibition of sprouting” value ([2]; 0.75 mmol/kg tubers) was 31.6%.
In the case of CCCCCC/C=C/C=O [trans-2-nonenal, reference compound], the “metabolites formed in tubers” value [4] is reported as “trans-2-nonen-1-ol, nonanal and 1-nonanol”, the “% Inhibition of sprouting” value ([2]; 0.25 mmol/kg tubers) is reported as 100% and the “% Inhibition of sprouting” value ([2]; 0.5 mmol/kg tubers) is reported as 100%. For the same compound, the “% Inhibition of sprouting” value ([2]; 0.75 mmol/kg tubers) was 100% and the “inhibition of sprouting relative to untreated control” value ([2]; over all concentrations (0.25, 0.5 and 0.75 mmol/kg)) was 100%.
